Experimental data reported in patent US20230338370A1, “Treatment of Cancer with TOR Kinase Inhibitors” (Signal Pharmaceuticals, LLC, priority 2012, published 2023).

Columns and labels:
BT-20 = experiment: Apoptosis assay for BC Cell lines (Caspase 3/7-Glo); format: cell-based; settings: BT-20, TN; 24 hours
Protocol: (§1) Apoptosis assay for BC Cell lines. Prior to testing, cells were grown and expanded in culture flasks to provide sufficient amounts of starting material. Cells were then diluted to their desired densities and added directly to compound-spotted 384-well plates. Cells were allowed to grow for 24 hours in 5% CO2 at 37° C. The apoptotic response was assessed by quantifying the activities of caspase 3 and caspase 7 (Caspase 3/7-Glo) in treated cells and control cells at the 24-hour time point. All data was normalized and represented as a value relative to the DMSO-treated cells. Results were then expressed as CalX, which is the minimum compound concentration required to double the levels of caspase 3/7 relative to those of the DMSO-treated cells during their treatment period.

BT-549 = experiment: as above; format: cell-based; settings: BT-549, TN; 24 hours
Protocol: as §1

CAL-120 = experiment: as above; format: cell-based; settings: CAL-120, TN; 24 hours
Protocol: as §1

CAL-148 = experiment: as above; format: cell-based; settings: CAL-148, TN; 24 hours
Protocol: as §1

CAL-51 = experiment: as above; format: cell-based; settings: CAL-51, TN; 24 hours
Protocol: as §1

CAL-85-1 = experiment: as above; format: cell-based; settings: CAL-85-1, TN; 24 hours
Protocol: as §1

DU4475 = experiment: as above; format: cell-based; settings: DU4475, TN; 24 hours
Protocol: as §1

HCC1143 = experiment: as above; format: cell-based; settings: HCC1143, TN; 24 hours
Protocol: as §1

HCC1187 = experiment: as above; format: cell-based; settings: HCC1187, TN; 24 hours
Protocol: as §1

HCC1806 = experiment: as above; format: cell-based; settings: HCC1806, TN; 24 hours
Protocol: as §1

HCC1937 = experiment: as above; format: cell-based; settings: HCC1937, TN; 24 hours
Protocol: as §1

HCC2157 = experiment: as above; format: cell-based; settings: HCC2157, TN; 24 hours
Protocol: as §1

HCC38 = experiment: as above; format: cell-based; settings: HCC38, TN; 24 hours
Protocol: as §1

HCC70 = experiment: as above; format: cell-based; settings: HCC70, TN; 24 hours
Protocol: as §1

HDQ-P1 = experiment: as above; format: cell-based; settings: HDQ-P1, TN; 24 hours
Protocol: as §1

HS578T = experiment: as above; format: cell-based; settings: TN, 24 hours
Protocol: as §1

MB157 = experiment: as above; format: cell-based; settings: MB157, TN; 24 hours
Protocol: as §1

MDA-MB-157 = experiment: as above; format: cell-based; settings: MDA-MB-157, TN; 24 hours
Protocol: as §1

MDA-MB-231 = experiment: as above; format: cell-based; settings: MDA-MB-231, TN; 24 hours
Protocol: as §1

MDA-MB-436 = experiment: as above; format: cell-based; settings: MDA-MB-436, TN; 24 hours
Protocol: as §1

MDA-MB-468 = experiment: as above; format: cell-based; settings: MDA-MB-468, TN; 24 hours
Protocol: as §1

MT-3 = experiment: as above; format: cell-based; settings: MT-3, TN; 24 hours
Protocol: as §1

MDA-MB-231 tumors = experiment: MDA-MB-231 Triple Negative (TN) Breast Cancer Model (xenograft); format: in vivo; settings: nude mice, subcutaneous MDA-MB-231 xenograft; oral QD for up to 26 days, 1 to 5 mg/kg
Protocol: A xenograft study was conducted with MDA-MB-231 tumor-bearing mice. Nude mice were inoculated subcutaneously with MDA-MB-231 cells in the flank region above the right hind leg. Following inoculation of animals, the tumors were allowed to grow to about 150 mm^3 prior to randomization. On Day 38 following tumor cell inoculation, the mice bearing MDA-MB-231 tumors ranging between 65 and 304 mm^3 were pooled together and randomized into various treatment groups. […] The positive control Taxotere (15 mg/kg, Q4D) was administered via the intravenous (IV) route. Taxotere was diluted in saline. Tumors were measured twice a week using calipers and tumor volumes were calculated using the formula of W2 × L / 2 (wherein “W” is tumor width and “L” is tumor length).

CCN1C(=O)CNc2ncc(-c3ccc(-c4nc[nH]n4)nc3C)nc21 [Compound 1, 1-ethyl-7-(2-methyl-6-(1H-1,2,4-triazol-3-yl)pyridin-3-yl)-3,4-dihydropyrazino[2,3-b]pyrazin-2(1H)-one]
CalX (minimum compound concentration required to double the levels of caspase 3/7) (BT-20): 0.6025 µM
CalX (minimum compound concentration required to double the levels of caspase 3/7) (BT-549): ≥10 µM
CalX (minimum compound concentration required to double the levels of caspase 3/7) (CAL-120): ≥10 µM
CalX (minimum compound concentration required to double the levels of caspase 3/7) (CAL-148): 0.1583 µM
CalX (minimum compound concentration required to double the levels of caspase 3/7) (CAL-51): 0.3611 µM
CalX (minimum compound concentration required to double the levels of caspase 3/7) (CAL-85-1): ≥10 µM
CalX (minimum compound concentration required to double the levels of caspase 3/7) (DU4475): 0.9448 µM
CalX (minimum compound concentration required to double the levels of caspase 3/7) (HCC1143): ≥10 µM
CalX (minimum compound concentration required to double the levels of caspase 3/7) (HCC1187): 0.6418 µM
CalX (minimum compound concentration required to double the levels of caspase 3/7) (HCC1806): ≥10 µM
CalX (minimum compound concentration required to double the levels of caspase 3/7) (HCC1937): ≥10 µM
CalX (minimum compound concentration required to double the levels of caspase 3/7) (HCC2157): 1.3472 µM
CalX (minimum compound concentration required to double the levels of caspase 3/7) (HCC38): ≥10 µM
CalX (minimum compound concentration required to double the levels of caspase 3/7) (HCC70): ≥10 µM
CalX (minimum compound concentration required to double the levels of caspase 3/7) (HDQ-P1): ≥10 µM
CalX (minimum compound concentration required to double the levels of caspase 3/7) (HS578T): ≥10 µM
CalX (minimum compound concentration required to double the levels of caspase 3/7) (MB157): ≥10 µM
CalX (minimum compound concentration required to double the levels of caspase 3/7) (MDA-MB-157): ≥10 µM
CalX (minimum compound concentration required to double the levels of caspase 3/7) (MDA-MB-231): ≥10 µM
CalX (minimum compound concentration required to double the levels of caspase 3/7) (MDA-MB-436): ≥10 µM
CalX (minimum compound concentration required to double the levels of caspase 3/7) (MDA-MB-468): ≥10 µM
CalX (minimum compound concentration required to double the levels of caspase 3/7) (MT-3): 2.4106 µM
tumor growth (MDA-MB-231 tumors): inhibited MDA-MB-231 breast cancer tumor growth
